Assay results published in PubChem BioAssay (NCI).
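Exposure lasted 48 hours, with cells grown in 96-well plates and compounds tested at five concentrations. The concentration for full growth arrest is given as TGI.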

Key:
Test in all cases: NCI-60 cell line screen, 48 h
[1] = test system: A498 renal
[2] = test system: KM12 colon
[3] = test system: ACHN renal
[4] = test system: SNB-75 CNS
[5] = test system: HT29 colon
[6] = test system: UACC-257 melanoma
[7] = test system: SK-MEL-28 melanoma
[8] = test system: T-47D breast
[9] = test system: MDA-N
[10] = test system: NCI-H226 lung
[11] = test system: OVCAR-8 ovarian
[12] = test system: MDA-MB-231 breast
[13] = test system: OVCAR-5 ovarian
[14] = test system: NCI-H460 lung
[15] = test system: NCI/ADR-RES ovarian
[16] = test system: NCI-H522 lung
[17] = test system: UACC-62 melanoma
[18] = test system: SNB-19 CNS
[19] = test system: SF-295 CNS
[20] = test system: HOP-62 NSCLC
[21] = test system: DU-145 prostate
[22] = test system: HCT-116 colon
[23] = test system: IGROV1 ovarian
[24] = test system: PC-3 prostate
[25] = test system: SN12C renal
[26] = test system: BT-549 breast
[27] = test system: HCT-15 colon
[28] = test system: TK-10 renal
[29] = test system: SR leukemia
[30] = test system: NCI-H23 lung
[31] = test system: SK-MEL-5 melanoma
[32] = test system: MDA-MB-435
[33] = test system: MALME-3M melanoma
[34] = test system: U251 CNS
[35] = test system: RXF 393 renal
[36] = test system: MOLT-4 leukemia
[37] = test system: M14 melanoma
[38] = test system: CCRF-CEM leukemia
[39] = test system: HS 578T breast
[40] = test system: LOX IMVI melanoma
[41] = test system: SF-268 CNS
[42] = test system: COLO 205 colon
[43] = test system: HL-60(TB) leukemia
[44] = test system: K-562 leukemia
[45] = test system: 786-0 renal
[46] = test system: OVCAR-3 ovarian
[47] = test system: SF-539 CNS
[48] = test system: SW-620 colon
[49] = test system: EKVX NSCLC
[50] = test system: SK-OV-3 ovarian
[51] = test system: A549 NSCLC
[52] = test system: HCC-2998 colon
[53] = test system: RPMI-8226 leukemia
[54] = test system: UO-31 renal
[55] = test system: OVCAR-4 ovarian
[56] = test system: CAKI-1 renal
[57] = test system: SK-MEL-2 melanoma
[58] = test system: HOP-92 NSCLC
[59] = test system: MCF7 breast

Oc1c(Cl)ccc2cccnc12
TGI [1]: 33.1 µM | TGI [2]: > 100 µM | TGI [3]: 35.8 µM | TGI [4]: 89.6 µM | TGI [5]: > 100 µM | TGI [6]: 84.2 µM | TGI [7]: > 100 µM | TGI [8]: 25.8 µM | TGI [9]: > 100 µM | TGI [10]: 71.2 µM | TGI [11]: > 100 µM | TGI [12]: > 100 µM | TGI [13]: > 100 µM | TGI [14]: 88 µM | TGI [15]: 3.43 µM | TGI [16]: 7.78 µM | TGI [17]: 8.09 µM | TGI [18]: > 100 µM | TGI [19]: 68.4 µM | TGI [20]: 59.6 µM | TGI [21]: > 100 µM | TGI [22]: 4.56 µM | TGI [23]: 1.86 µM | TGI [24]: > 100 µM | TGI [25]: 88.5 µM | TGI [26]: > 100 µM | TGI [27]: > 100 µM | TGI [28]: > 100 µM | TGI [29]: 13.5 µM | TGI [30]: > 100 µM | TGI [31]: > 100 µM | TGI [32]: > 100 µM | TGI [33]: > 100 µM | TGI [34]: > 100 µM | TGI [35]: 26.2 µM | TGI [36]: 5.76 µM | TGI [37]: > 100 µM | TGI [38]: 2.4 µM | TGI [39]: > 100 µM | TGI [40]: 29.7 µM | TGI [41]: > 100 µM | TGI [42]: > 100 µM | TGI [43]: 0.728 µM | TGI [44]: 7.56 µM | TGI [45]: 51.4 µM | TGI [46]: > 100 µM | TGI [47]: 34.7 µM | TGI [48]: > 100 µM | TGI [49]: 39.4 µM | TGI [50]: > 100 µM | TGI [51]: > 100 µM | TGI [52]: > 100 µM | TGI [53]: 8.28 µM | TGI [54]: 41.1 µM | TGI [55]: > 100 µM | TGI [56]: > 100 µM

O=C(CSc1nc2ccc(Cl)cc2c(=O)n1-c1ccccc1)N=Nc1c(O)[nH]c2ccc(F)cc12
TGI [1]: 9.8 µM | TGI [2]: 11.8 µM | TGI [3]: 4.1 µM | TGI [4]: 5.65 µM | TGI [5]: 3.96 µM | TGI [6]: 10.6 µM | TGI [7]: 11.3 µM | TGI [8]: 4.8 µM | TGI [9]: 7.53 µM | TGI [10]: 12.6 µM | TGI [11]: 3.33 µM | TGI [12]: 5.82 µM | TGI [13]: 9.01 µM | TGI [14]: 9.77 µM | TGI [15]: 8.44 µM | TGI [16]: 3.86 µM | TGI [17]: 7.1 µM | TGI [18]: 10.5 µM | TGI [19]: 14.9 µM | TGI [20]: 4.19 µM | TGI [21]: 4.85 µM | TGI [22]: 3.28 µM | TGI [23]: 4.39 µM | TGI [24]: 6.82 µM | TGI [25]: 4.67 µM | TGI [26]: 4.11 µM | TGI [27]: 3.45 µM | TGI [28]: 15.5 µM | TGI [30]: 7.57 µM | TGI [31]: 10.3 µM | TGI [32]: 5.69 µM | TGI [33]: 11.6 µM | TGI [34]: 3.27 µM | TGI [35]: 4.26 µM | TGI [36]: 5.56 µM | TGI [37]: 11 µM | TGI [38]: 6.34 µM | TGI [39]: > 27 µM | TGI [40]: 3.22 µM | TGI [41]: 8.83 µM | TGI [57]: 5.3 µM | TGI [42]: 4.81 µM | TGI [43]: 7.25 µM | TGI [44]: 11.3 µM | TGI [45]: 4.45 µM | TGI [58]: 8.51 µM | TGI [59]: 4.64 µM | TGI [46]: 4 µM | TGI [47]: 15.2 µM | TGI [48]: 5.43 µM | TGI [49]: 14.4 µM | TGI [50]: 22.3 µM | TGI [51]: 5.42 µM | TGI [52]: 8.73 µM | TGI [53]: 3.9 µM | TGI [54]: 0.411 µM | TGI [55]: 5.65 µM | TGI [56]: 11.6 µM

CC(C)c1ccc2c(c1)[C@@]1(C)CC[C@H](C)C(C)(C)C1CC2 (stereo not given in full)
TGI [1]: 34.9 µM | TGI [2]: 38.4 µM | TGI [3]: 32.6 µM | TGI [4]: 31.6 µM | TGI [5]: 31.3 µM | TGI [6]: 36.7 µM | TGI [7]: 31.6 µM | TGI [8]: 66.4 µM | TGI [9]: 56.3 µM | TGI [10]: 32.3 µM | TGI [11]: 33.1 µM | TGI [12]: 34 µM | TGI [13]: 52.6 µM | TGI [14]: 36.9 µM | TGI [15]: 36.6 µM | TGI [16]: 75.3 µM | TGI [17]: 29.9 µM | TGI [18]: 35.3 µM | TGI [19]: 38.3 µM | TGI [20]: 35.2 µM | TGI [21]: 59.4 µM | TGI [22]: 34.9 µM | TGI [23]: > 100 µM | TGI [25]: 31.8 µM | TGI [26]: 35 µM | TGI [27]: 34 µM | TGI [28]: 33.1 µM | TGI [29]: 67.5 µM | TGI [30]: 35.6 µM | TGI [31]: 41.4 µM | TGI [32]: 31.3 µM | TGI [33]: 37 µM | TGI [35]: 33.2 µM | TGI [36]: 94.7 µM | TGI [37]: 34.8 µM | TGI [38]: 47.7 µM | TGI [39]: 47.4 µM | TGI [40]: 32 µM | TGI [41]: 36 µM | TGI [57]: 63.3 µM | TGI [42]: 42.1 µM | TGI [43]: 63.6 µM | TGI [44]: > 100 µM | TGI [45]: 33.4 µM | TGI [58]: 36.3 µM | TGI [59]: 32.1 µM | TGI [46]: 63 µM | TGI [47]: 39.6 µM | TGI [48]: > 100 µM | TGI [49]: 35.2 µM | TGI [50]: 33.9 µM | TGI [51]: 32.1 µM | TGI [52]: 41.3 µM | TGI [53]: 41.1 µM | TGI [54]: > 100 µM | TGI [55]: 30.3 µM | TGI [56]: 50.6 µM

O=C(N/N=C\c1ccc([N+](=O)[O-])cc1)Nc1ccccc1
TGI [1]: > 100 µM | TGI [2]: > 100 µM | TGI [4]: > 100 µM | TGI [5]: > 100 µM | TGI [6]: > 100 µM | TGI [7]: > 100 µM | TGI [8]: > 100 µM | TGI [9]: > 100 µM | TGI [10]: > 100 µM | TGI [11]: > 100 µM | TGI [13]: > 100 µM | TGI [14]: > 100 µM | TGI [15]: > 100 µM | TGI [17]: > 100 µM | TGI [18]: > 100 µM | TGI [19]: > 100 µM | TGI [20]: > 100 µM | TGI [21]: > 100 µM | TGI [22]: > 100 µM | TGI [23]: > 100 µM | TGI [24]: > 100 µM | TGI [25]: > 100 µM | TGI [26]: > 100 µM | TGI [27]: > 100 µM | TGI [28]: > 100 µM | TGI [29]: > 100 µM | TGI [30]: > 100 µM | TGI [31]: > 100 µM | TGI [32]: > 100 µM | TGI [33]: > 100 µM | TGI [34]: > 100 µM | TGI [35]: > 100 µM | TGI [36]: > 100 µM | TGI [37]: > 100 µM | TGI [38]: > 100 µM | TGI [39]: > 100 µM | TGI [57]: > 100 µM | TGI [42]: > 100 µM | TGI [43]: > 100 µM | TGI [44]: > 100 µM | TGI [58]: > 100 µM | TGI [59]: > 100 µM | TGI [46]: > 100 µM | TGI [48]: > 100 µM | TGI [50]: > 100 µM | TGI [53]: > 100 µM | TGI [54]: > 100 µM | TGI [55]: > 100 µM | TGI [56]: > 100 µM
